Measured values: patent USRE49816E1, “Dipeptides as inhibitors of human immunoproteasomes” (CORNELL UNIVERSITY, priority 2014, dated 2024)
“Also recorded” adds a separate entry of the source.

How the values were obtained:
TNBS-induced colitis [1] = conditions: Watanabe et al.; cited from earlier work
Karpas cells = experiment: Accumulation of poly-ubiquitinylated proteins in Karpas cells (anti-ub blot); assay type: cell-based, human; conditions: 24 hours treatment
Method: FIGS. 5A-C show experimental results relating to SAR studies and target engagement inside the cells. FIG. 5A is a graph showing experimental results relating to inhibition of i-20S β5i and c-20S β5c by selected dipeptides. […] FIG. 5C is an image of an SDS-page gel showing accumulation of poly-ubiquitinylated (ub) proteins. Karpas cells were treated with dipeptides, or with bortezomib as a control, at indicated concentrations for 24 hours, and the poly-ub proteins in the lysates were blotted with anti-ub antibody and visualized with a second antibody directed against the first antibody and tagged with a dye that absorbs infrared light (Odyssey® CLx imaging system, LICOR).

[2] = test system: proteasome inside the Karpas 1106p cells; experiment: Cell-based Proteasome-Glo assay after compound removal; set-up: species or system human; conditions: 4 hours, read-out: Proteasome-glo β5-IC50
Karpas 1106p cells [3] = experiment: Cytotoxicity (LD50) against Karpas lymphoma cells; assay type: cell-based, human; conditions: Table 4
TNBS-induced colitis [4] = experiment: TNBS-induced colitis in mice
hu i-20S β5i-subunit = hu i-20S β5i-subunit (Homo sapiens, UniProt P20618+P28062); experiment: N,C-capped dipeptides IC50, Ac-ANW-AMC fluorescence assay; assay type: biochemical
Method: All inhibitory assays for N,C capped dipeptides were performed in a black solid-bottom 96-well plate. In general, compound plates were prepared starting from 10 mM in 3× series dilution to 15 μM. 1 μl of DMSO stock was transferred to a black 96-well plate and 100 μL of reaction mixture were added 15 μM N-acetyl-Alanine-Asparagine-Tryptophan-7-amino-4-methylcourmarin (Ac-ANW-AMC) or 25 μM succinyl-Leucine-Leucine-Valine-Tyrosine-7-amino-4-methyl-courmarin (succ-LLVY-AMC), 0.4 nM hu i-20S β5i-subunit or 0.2 nM hu c-20S β5c-subunit, 0.02% SDS, 1% BSA, 0.5 mM EDTA in 20 mM HEPES buffer at pH7.5. The plates were then spun at 1000 rpm for 1 minute, and the fluorescence units of each well were recorded at λex=360 nm, λem=460 nm for 2 hours. The slopes of the initial linear range of the time course were used to calculate the velocity, and relative activities were normalized to the velocities of the DMSO control.

mouse i-20S β5i = experiment: Predicted inhibition of mouse i-20S β5i over mouse c-20S β5c; assay type: biochemical; conditions: predicted from sequence identity
[5] = test system: human B-lymphoma cell line; experiment: Cytotoxicity against B-lymphoma cell line; assay type: cell-based; conditions: concentrations up to 50 μM
RAW264 GFP-LC3 cells = experiment: Autophagy induction in RAW264 GFP-LC3 cells; assay type: cell-based, mouse; conditions: 10 nM, 37° C. overnight; bafilomycin A 20 nM 4 hours
Method: Prior to fixation with 4% paraformaldehyde, the cells were treated with bafilomycin A (20 nM), an inhibitor of the late phase of autophagy, for 4 hours. Fluorescent images were recorded digitally with a multiphoton microscope. […]

Karpas 1106p cells [6] = experiment: Cytotoxicity (LD50) against Karpas lymphoma cells; assay type: cell-based, human; conditions: Table 3
Source text: Table 3 lists the inhibition kinetic parameters, selectivity index, and calculated log Ps of selected dipeptides.

[7] = test system: mouse bone marrow derived macrophages (BMDMs); experiment: Cytokine production in LPS-activated macrophages (ELISA, qPCR); assay type: cell-based
Method: Culture supernatants were harvested 24 hours (h) after LPS stimulation and analyzed for cytokine production by enzyme-linked immunosorbent assay (ELISA). Total RNA was isolated 4 h after LPS stimulation and analyzed by real time quantitative polymerase chain reaction (PCR) for IL-12p35 and IL-12/IL-23p40 genes. Data are expressed relative to levels of glyceraldehyde 3-phosphate dehydrogenase (GAPDH) levels and represent three independent experiments.
The dipeptide compounds and their relative inhibitory results on the βcomponent of the human immunoproteasome (β5i) and constitutive proteasome (β5c) are described in Examples 151 and 152.

[8] = test system: human peripheral blood mononuclear cells; experiment: Cytotoxicity against PBMCs; assay type: cell-based; conditions: concentrations up to 50 μM
4T1 mammary carcinoma = conditions: i.p. daily 6 mg/kg from Day 10, sacrifice Day 20; p<0.05
[9] = test system: mouse bone marrow derived macrophages (BMDMs); experiment: Cytotoxicity against BMDMs; conditions: concentrations up to 50 μM
[10] = test system: HepG2 human hepatoma cells; experiment: Cytotoxicity against HepG2; assay type: cell-based; conditions: concentrations up to 50 μM
hu c-20S β5c = hu c-20S β5c (Homo sapiens, UniProt P20618+P28074); experiment: Kinetic parameters of oxathiazolones vs hu c-20S β5c; assay type: biochemical; conditions: Hu20S β5c; from slopes of kobs vs [I]
hu i-20S β5i = hu i-20S β5i (Homo sapiens, UniProt P20618+P28062); experiment: Kinetic parameters of oxathiazolones vs hu i-20S β5i; assay type: biochemical; conditions: Hu20S β5i; for kinact: printed value is kinact × 10^3; for Ki: read-out: KI
[11] = test system: mouse bone marrow derived macrophages (BMDMs); conditions: Muchamuel et al. 2009; cited from earlier work

**Q.** For CC(=O)N[C@H]1C(O)O[C@H](CO)[C@@H](O)[C@@H]1O[C@H](C)C(=O)N[C@@H](C)C(=O)N[C@H](CCC(=O)O)C(N)=O (mixture of isomers) [MDP, muramyl dipeptide], which protection from colitis (TNBS-induced colitis [1]) is on record?
**A.** protected mice from colitis

**Q.** With CC(C)C[C@H](NC(=O)[C@H](Cc1ccccc1)NC(=O)c1cnccn1)B(O)O [Bortezomib, reference compound] as the compound, how does the “accumulation of poly-ubiquitinylated proteins” value (from here on “accumulation”) (Karpas cells) read?
**A.** accumulation

**Q.** What about the IC50 [2] of the same compound?
**A.** 0.6 nM

**Q.** What about the “LD50 Karpas” value (Karpas 1106p cells [3]) of the same compound?
**A.** 0.0017 µM

**Q.** For CC(C)(C)ONC(=O)C[C@H](NC(=O)CCc1ccccc1)C(=O)N[C@@H](Cc1ccc(F)cc1)C(=O)NCc1cccc2ccccc12 [DPLG-3], which “accumulation” value (Karpas cells) is on record?
**A.** did not cause accumulation

**Q.** And the IC50 [2]?
**A.** 110 nM

**Q.** And the adverse effects (TNBS-induced colitis [4]; I.P. 3-12 mg/kg, TNBS mice)?
**A.** did not cause detectable adverse effects

**Q.** What about the colitis-induced weight loss (TNBS-induced colitis [4]; I.P. at day −1, 1 and 3, 3, 6 and 12 mg/kg, dose-dependent) of the same compound?
**A.** strongly inhibited colitis-induced weight loss

**Q.** And the “colitis-induced weight loss / pathogenesis” value (TNBS-induced colitis [4]; one-time i.v. injection (6 mg/kg) at time of TNBS challenge, WT mice)?
**A.** strongly inhibited colitis-associated pathogenesis; also recorded: strongly inhibited colitis-induced weight loss

**Q.** And the mode of inhibition (hu i-20S β5i-subunit)?
**A.** competitive inhibition

**Q.** And the “inhibition of mouse i-20S β5i over mouse c-20S β5c” value (mouse i-20S β5i)?
**A.** potently and selectively inhibit

**Q.** What about the cytotoxicity [5] of the same compound?
**A.** not cytotoxic

**Q.** What about the induction of autophagy (RAW264 GFP-LC3 cells) of the same compound?
**A.** induces autophagy

**Q.** And the LD50 (Karpas 1106p cells [6])?
**A.** 2.04 µM

**Q.** And the IL-10 production [7]?
**A.** no significant effects

**Q.** And the “sensitivity of IL-12 and IL-23 production vs TNF-α (factor)” value [7]?
**A.** 10-20

**Q.** What about the “production of IL-12” value ([7]; LPS 1 μg/ml, 24 h, ELISA) of the same compound?
**A.** dose-dependently inhibited

**Q.** What about the “production of IL-12/IL-23p40” value ([7]; LPS 1 μg/ml, 24 h, ELISA) of the same compound?
**A.** dose-dependently inhibited

**Q.** And the “production of TNF-α” value ([7]; LPS 1 μg/ml, 24 h, ELISA)?
**A.** dose-dependently inhibited

**Q.** What about the “transcription of P35 and P40” value ([7]; mRNA 4 h after LPS, qPCR relative to GAPDH) of the same compound?
**A.** reduced

**Q.** And the IL-6 production ([7]; on its own)?
**A.** dose-dependently induced

**Q.** What about the cytotoxicity [8] of the same compound?
**A.** not cytotoxic

**Q.** What about the “tumor size and weight” value (4T1 mammary carcinoma) of the same compound?
**A.** reducing the size and weight

**Q.** And the “LD50 Karpas” value (Karpas 1106p cells [3])?
**A.** 2.04 µM

**Q.** And the cytotoxicity [9]?
**A.** not cytotoxic

**Q.** What about the cytotoxicity [10] of the same compound?
**A.** not cytotoxic

**Q.** For COC[C@H](NC(=O)[C@H](CC(=O)NOC(C)(C)C)NC(=O)CCc1ccccc1)C(=O)NCc1cccc2ccccc12 [DPLG-2086, (S)—N^4-(tert-butoxy)-N^1—((S)-3-methoxy-1-((naphthalen-1-ylmethyl)amino)-1-oxopropan-2-yl)-2-(3-phenylpropanamido)succinamide], which “accumulation” value (Karpas cells) is on record?
**A.** accumulation of poly-Ub proteins

**Q.** What about the IC50 [2] of the same compound?
**A.** 5 nM

**Q.** And the LD50 (Karpas 1106p cells [6])?
**A.** 0.46 µM

**Q.** What about the “LD50 Karpas” value (Karpas 1106p cells [3]) of the same compound?
**A.** 0.46 µM

**Q.** What does the source list for O=c1oc(-c2ccccn2)ns1 [HT1043]?
**A.** kinact/KI (hu c-20S β5c): 0.2 M⁻¹ s⁻¹; kinact/KI (hu i-20S β5i): 129 M⁻¹ s⁻¹; kinact (hu i-20S β5i): 0.00025 s⁻¹; Ki (hu i-20S β5i): 2000 nM

**Q.** For Cc1sc(-c2nsc(=O)o2)cc1[N+](=O)[O-] [HT1171], which kinact/KI (hu c-20S β5c) is on record?
**A.** 10.1 M⁻¹ s⁻¹

**Q.** What about the kinact/KI (hu i-20S β5i) of the same compound?
**A.** 1010 M⁻¹ s⁻¹

**Q.** What about the kinact (hu i-20S β5i) of the same compound?
**A.** 0.00077 s⁻¹

**Q.** And the Ki (hu i-20S β5i)?
**A.** 760 nM

**Q.** Which “effect on cytokines analyzed” value [11] does the source give for COc1ccc(C[C@H](NC(=O)[C@H](C)NC(=O)CN2CCOCC2)C(=O)N[C@@H](Cc2ccccc2)C(=O)[C@]2(C)CO2)cc1 [ONX 0914] here?
**A.** inhibitory
